Experimental data from article PMC9137512 (Antibiotics, 2022).

Key:
clinical = conditions: for level at 192 h: iv
Procedure: The samples were subsequently analyzed according to the described method. […] The patients’ estimated glomerular filtration (eGFR) was calculated by the chronic kidney disease epidemiology collaboration equation (CKD–EPI). The AUC was calculated using the trapezoidal rule.
(§1) Subsequently, samples were mixed for 10 s, stored in an ultrasonic bath for 10 min at 40 °C, then centrifuged at 8000× g for 5 min. Next, 100 µL of the resulting supernatant was further diluted with 500 µL water with 0.1% formic acid. […] Details are described in the Supplementary Materials (Figures S1–S3).
An aliquot of 20 µL was injected onto the HPLC–UV system equipped with a diode array detector (Nexera-I 3D plus, Shimadzu, Duisburg, Germany). Chromatographic analysis was performed using a reversed phase column Shim-pack XR-ODS III with 2.2 µm particle size (150 mm × 2 mm, Shimadzu, Duisburg, Germany) in combination with a column guard (Shim-pack GISS-H (G) C18, 3 µm; 10 mm × 2.1 mm, Shimadzu, Duisburg, Germany). Separation was performed using a gradient of 0.1% formic acid in acetonitrile and 0.1% formic acid in water with a flow rate of 0.35 mL/min. The autosampler and column were set at temperatures of 10 °C and 45 °C, respectively.

[1] = Free dalbavancin in patient serum by solid phase extraction with a centrifugal device (Nanosep); type: in vivo, human; conditions: for fcmax(d1) *: day 1 peak; for fcmax(d1) * / fcmin(d8) *: free concentration determined by solid phase extraction (Nanosep); for fcmin(d8) *: day 8 trough; for fAUC(d8) *: from free concentration by solid phase extraction (Nanosep)
Procedure: The AUC was calculated using the trapezoidal rule.

[2] = Free concentration and protein binding in spiked human serum samples (Table S5)
Procedure: as §1
Table S5. […] In order to evaluate the
(a) Spiked human serum samples of 14 patients (8 critically ill and 6 non-critically ill) after calibration with sheep serum.
(b) Spiked human serum samples of 9 critically ill patients and 6 healthy volunteers after calibration with human serum.

[3] = S5a, serum of patient 2 (critically ill) spiked 200 mg/L, measured c 207 mg/L, calibration with sheep serum
[4] = S5a, serum of patient 3 (critically ill) spiked 50 mg/L, measured c 51.2 mg/L, calibration with sheep serum
[5] = S5b, serum of 26 (healthy volunteer) spiked 200 mg/L, measured c 219 mg/L, calibration with human serum
[6] = S5b, serum of 27 (healthy volunteer) spiked 50 mg/L, measured c 52.5 mg/L, calibration with human serum
[7] = S5b, serum of 27 (healthy volunteer) spiked 200 mg/L, measured c 220 mg/L, calibration with human serum
[8] = S5b, serum of 28 (healthy volunteer) spiked 50 mg/L, measured c 49.1 mg/L, calibration with human serum
[9] = S5b, serum of 28 (healthy volunteer) spiked 200 mg/L, measured c 199 mg/L, calibration with human serum
[10] = S5b, serum of 29 (healthy volunteer) spiked 50 mg/L, measured c 52.0 mg/L, calibration with human serum

With `CN[C@H]1C(=O)N[C@@H]2Cc3ccc(cc3)Oc3cc4cc(c3O[C@@H]3O[C@H](C(=O)O)[C@@H](O)[C@H](O)[C@H]3NC(=O)CCCCCCCCC(C)C)Oc3ccc(cc3Cl)[C@@H](O)[C@@H]3NC(=O)[C@H](NC(=O)[C@@H]4NC(=O)[C@@H](NC2=O)c2cc(cc(O)c2Cl)Oc2cc1ccc2O)c1ccc(O)c(c1)-c1c(O[C@H]2O[C@H](CO)[C@@H](O)[C@H](O)[C@@H]2O)cc(O)cc1[C@@H](C(=O)NCCCN(C)C)NC3=O` [dalbavancin, Dalbavancin] the Cmax (clinical; human, in vivo, 1500 mg, cmax(d1)) was 278000 ng/mL, the level at 192 h (clinical; human, in vivo, 1500 mg, cmin(d8)) was 44900 ng/mL and the level at 192 h (clinical; human, in vivo, trough concentrations on day 8 before redosing) was 23000 to 44900 ng/mL. For the same molecule, the “peak concentrations after the initial dosing” value (clinical; range of three cardiologic patients, total serum) was 201 to 278 mg/L, the “maximum free fraction at total concentrations below the LOQ of 12.5 mg/L” value ([1]; in accordance with the higher protein binding observed) was 0.4 mg/L and the “fcmax(d1) *” value ([1]; patient 1, 1500 mg) was 5.4 mg/L. For the same molecule, the “fcmin(d8) *” value ([1]; patient 1, 1500 mg) was 1.3 mg/L, the “fAUC(d8) *” value ([1]; patient 1, 1500 mg) was 31200 ng·h/mL and the “fcmax(d1) *” value ([1]; patient 2, 1500 mg) was 6.4 mg/L. The “fcmin(d8) *” value ([1]; patient 2, 1500 mg) was 1.0 mg/L, the “fAUC(d8) *” value ([1]; patient 2, 1500 mg) was 24000 ng·h/mL and the “fcmax(d1) *” value ([1]; patient 3, 1500 mg) was 6.7 mg/L. For the same molecule, the “fcmin(d8) *” value ([1]; patient 3, 1500 mg) was under 1.0 mg/L, the “fAUC(d8) *” value ([1]; patient 3, 1500 mg) was under 24000 ng·h/mL and the fc ([2]; S5a, serum of patient 1 (critically ill) spiked 50 mg/L, measured c 53.5 mg/L, Nanosep SPE, HPLC-UV, calibration with sheep serum) was 1.4 mg/L. For the same molecule, the fc ([2]; S5a, serum of patient 1 (critically ill) spiked 200 mg/L, measured c 201 mg/L, calibration with sheep serum) was 7.6 mg/L, the fc ([2]; S5a, serum of patient 2 (critically ill) spiked 50 mg/L, measured c 53.6 mg/L, calibration with sheep serum) was 1.7 mg/L and the PB [2, 3] was 96%. The fc [2, 3] was 9.0 mg/L, the PB [2, 4] was 96% and the fc [2, 4] was 1.9 mg/L. The fc ([2]; S5a, serum of patient 3 (critically ill) spiked 200 mg/L, measured c 209 mg/L, calibration with sheep serum) was 9.1 mg/L, the fc ([2]; S5a, serum of patient 4 (critically ill) spiked 50 mg/L, measured c 54.2 mg/L, calibration with sheep serum) was 1.6 mg/L and the fc ([2]; S5a, serum of patient 4 (critically ill) spiked 200 mg/L, measured c 212 mg/L, calibration with sheep serum) was 7.7 mg/L. It also gave a fc ([2]; S5a, serum of patient 5 (critically ill) spiked 50 mg/L, measured c 53.0 mg/L, calibration with sheep serum) of 2.1 mg/L, a fc ([2]; S5a, serum of patient 5 (critically ill) spiked 200 mg/L, measured c 203 mg/L, calibration with sheep serum) of 9.5 mg/L and a fc ([2]; S5a, serum of patient 6 (critically ill) spiked 50 mg/L, measured c 50.4 mg/L, calibration with sheep serum) of 1.5 mg/L. For the same molecule, the fc ([2]; S5a, serum of patient 6 (critically ill) spiked 200 mg/L, measured c 204 mg/L, calibration with sheep serum) was 9.2 mg/L, the fc ([2]; S5a, serum of patient 7 (critically ill) spiked 50 mg/L, measured c 49.1 mg/L, calibration with sheep serum) was 2.4 mg/L and the fc ([2]; S5a, serum of patient 7 (critically ill) spiked 200 mg/L, measured c 195 mg/L, calibration with sheep serum) was 10.2 mg/L. It also gave a fc ([2]; S5a, serum of patient 8 (critically ill) spiked 50 mg/L, measured c 54.3 mg/L, calibration with sheep serum) of 1.8 mg/L, a fc ([2]; S5a, serum of patient 8 (critically ill) spiked 200 mg/L, measured c 201 mg/L, calibration with sheep serum) of 8.7 mg/L and a fc ([2]; S5a, serum of patient 9 (non-critically ill) spiked 50 mg/L, measured c 40.0 mg/L, calibration with sheep serum) of under 1.0 mg/L. For the same molecule, the fc ([2]; S5a, serum of patient 9 (non-critically ill) spiked 200 mg/L, measured c 177 mg/L, calibration with sheep serum) was 3.7 mg/L, the fc ([2]; S5a, serum of patient 10 (non-critically ill) spiked 50 mg/L, measured c 47.8 mg/L, calibration with sheep serum) was under 1.0 mg/L and the fc ([2]; S5a, serum of patient 10 (non-critically ill) spiked 200 mg/L, measured c 180 mg/L, calibration with sheep serum) was 4.0 mg/L. For the same molecule, the fc ([2]; S5a, serum of patient 11 (non-critically ill) spiked 50 mg/L, measured c 38.6 mg/L, calibration with sheep serum) was under 1.0 mg/L, the fc ([2]; S5a, serum of patient 11 (non-critically ill) spiked 200 mg/L, measured c 177 mg/L, calibration with sheep serum) was 3.5 mg/L and the fc ([2]; S5a, serum of patient 12 (non-critically ill) spiked 50 mg/L, measured c 42.6 mg/L, calibration with sheep serum) was under 1.0 mg/L. It also gave a fc ([2]; S5a, serum of patient 12 (non-critically ill) spiked 200 mg/L, measured c 195 mg/L, calibration with sheep serum) of 3.9 mg/L, a fc ([2]; S5a, serum of patient 13 (non-critically ill) spiked 50 mg/L, measured c 53.0 mg/L, calibration with sheep serum) of 1.1 mg/L and a fc ([2]; S5a, serum of patient 13 (non-critically ill) spiked 200 mg/L, measured c 214 mg/L, calibration with sheep serum) of 6.3 mg/L. The fc ([2]; S5a, serum of patient 14 (non-critically ill) spiked 50 mg/L, measured c 50.0 mg/L, calibration with sheep serum) was 1.1 mg/L, the fc ([2]; S5a, serum of patient 14 (non-critically ill) spiked 200 mg/L, measured c 208 mg/L, calibration with sheep serum) was 4.6 mg/L and the fc ([2]; S5b, serum of 24 (healthy volunteer) spiked 50 mg/L, measured c 46.1 mg/L, calibration with human serum) was 1.6 mg/L. It also gave a fc ([2]; S5b, serum of 24 (healthy volunteer) spiked 200 mg/L, measured c 184 mg/L, calibration with human serum) of 4.6 mg/L, a fc ([2]; S5b, serum of 25 (healthy volunteer) spiked 50 mg/L, measured c 45.8 mg/L, calibration with human serum) of 1.6 mg/L and a fc ([2]; S5b, serum of 25 (healthy volunteer) spiked 200 mg/L, measured c 197 mg/L, calibration with human serum) of 5.8 mg/L. For the same molecule, the fc ([2]; S5b, serum of 26 (healthy volunteer) spiked 50 mg/L, measured c 52.6 mg/L, calibration with human serum) was 1.6 mg/L, the PB [2, 5] was 97% and the fc [2, 5] was 5.2 mg/L. It also gave a PB [2, 6] of 97%, a fc [2, 6] of 1.7 mg/L and a PB [2, 7] of 97%. The fc [2, 7] was 5.1 mg/L, the PB [2, 8] was 97% and the fc [2, 8] was 1.6 mg/L. It also gave a PB [2, 9] of 98%, a fc [2, 9] of 4.8 mg/L and a PB [2, 10] of 97%. It also gave a fc [2, 10] of 1.4 mg/L and a PB ([2]; S5b, serum of 29 (healthy volunteer) spiked 200 mg/L, measured c 207 mg/L, calibration with human serum) of 98%.
